In patent US6831199B1, “Pyrimidine compounds and derivatives thereof” (G. D. Searle & Co., priority 1995, dated 2004):
Structures can show the parent of a compound that is named as a salt.

Experiments:
[1] = target: T1, Human fibrinogen receptor (αIIbβ3) (Homo sapiens, UniProt P05106+P08514); experiment: Purified IIb/IIIa receptor assay (solid phase receptor assay, competition with biotinylated vitronectin); assay type: binding; conditions: read-out: IIb/IIIa IC50
T1 construct: Human fibrinogen receptor (αIIbβ3) was purified from outdated platelets; from tissue; host or cells: outdated human platelets
Outline: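 Purified platelet αIIbβ3 coated overnight at 4 °C in TBS with 1.0 mM Ca/Mg/Mn, pH 7.4, then BSA-blocked. Compounds (top 1.0×10^−4 M) competed with 1 nM biotinylated vitronectin for 2 h at room temperature. Bound label detected by HRP anti-biotin, A450; values normalized to no-competitor controls, four-parameter fit.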

[2] = target: T2, Human vitronectin receptor (αvβ3) (Homo sapiens, UniProt P05106+P06756); experiment: Vitronectin adhesion assay (solid phase receptor assay, competition with biotinylated vitronectin); assay type: binding; conditions: read-out: AvB3 IC50
T2 construct: Human vitronectin receptor (αvβ3) was purified from human placenta; from tissue; host or cells: human placenta
Outline: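 Purified human αvβ3 coated overnight at 4 °C in TBS with 1.0 mM Ca++, Mg++, Mn++, pH 7.4; compounds (top final 1.0×10^−4 M) competed with 1 nM biotinylated vitronectin for 2 h at room temperature. Bound ligand detected by HRP anti-biotin/OPD at A450; values normalized to no-competitor controls, four-parameter curve fit.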

Structure (SMILES)	IC50 [1] [nM]	IC50 [2] [nM]
CCOC(=O)CC(NC(=O)CNC(=O)c1cccc(NC(=O)Nc2ccccc2)c1)c1ccc2c(c1)OCO2 (stereo not drawn) [Example 123, ethyl β-[[2-[[[3-3-[[(phenylamino)carbonyl]amino]phenyl]carbonyl]amino]acetyl]amino]-1,3-benzodioxole-5-propanoate]	85500	11800
N=C(N)Nc1cccc(C(=O)NCC(=O)NC(CC(=O)O)c2cc(Cl)cc(Br)c2)c1 (racemic) [Example 214, (±)β-[[2-[[[3-[(aminoiminomethyl)amino]phenyl]carbonyl]amino]acetyl]amino]-3-bromo-5-chlorobenzenepropanoic acid, trifluoroacetate salt]	454	2.35
Cc1cc(Br)cc(C(CC(=O)O)NC(=O)CNC(=O)c2cccc(NC(=N)N)c2)c1 (racemic) [Example 212, (±)β-[[2-[[[3-[(aminoiminomethyl)amino]phenyl]carbonyl]amino]acetyl]amino]-3-bromo-5-methylbenzenepropanoic acid, trifluoroacetate salt]	306	1.93
CC(C)C(CC(=O)O)NC(=O)CNC(=O)c1cccc(NC(=N)N)c1 (stereo not shown) [Example 263, 3-[[2-[[[3-[(aminoiminomethyl)amino]phenyl]carbonyl]amino]acetyl]amino]-4-methylpentanoic acid, trifluoroacetate salt]	2760	4.19
COc1cc(C(CC(=O)O)NC(=O)CNC(=O)c2cccc(NC(=N)N)c2)cc2c1OCO2 (stereo not drawn) [Example 256, β-[[2-[[[3-[(aminoiminomethyl)amino]phenyl]carbonyl]amino]acetyl]amino]-4-methoxy-1,3-benzodioxole-6-propanoic acid, trifluoroacetate salt]	22	0.58
CNC(=NC#N)Nc1cccc(C(=O)NCC(=O)NC(CC(=O)O)c2cc(Cl)cc(Cl)c2)c1 (racemic) [Example 198, (±)3,5-dichloro-β-[[2-[[[3-[(cyanoimino)(methylamino)methyl]amino]phenyl]carbonyl]amino]acetyl]amino]benzenepropanoic acid]	37800	114
C#C[C@H](CC(=O)O)NC(=O)CNC(=O)c1cccc(N/C(N)=N\C(N)=O)c1 [Example 171, 3S-[[2-[[[3-[[amino[(aminocarbonyl)imino]methyl]amino]phenyl]carbonyl]amino]acetyl]amino]-4-pentynoic acid, trifluoroacetate salt, hydrate]	83.2	0.35
N=C(N)Nc1cc(C(=O)NCC(=O)NC(CC(=O)O)c2cc(Br)cc(Br)c2)cc(C(F)(F)F)c1 (racemic) [Example 213, (±)β-[[2-[[[3-[(aminoiminomethyl)amino]-5-(trifluoromethyl)phenyl]carbonyl]amino]acetyl]amino]-3,5-dibromobenzenepropanoic acid, trifluoroacetate salt]	334	2.93
CC1(C)CN=C(Nc2cccc(C(=O)NCC(=O)NC(CC(=O)O)c3cc(Cl)cc(Cl)c3O)c2)NC1 (racemic) [Example 362, (±)3,5-dichloro-2-hydroxy-β-[[2-[[[3-[(1,4,5,6-tetrahydro-5,5-dimethylpyrimidin-2-yl)amino]phenyl]carbonyl]amino]acetyl]amino]benzenepropanoic acid, trifluoroacetate salt]	7260	0.84
N=C(N)Nc1cccc(C(=O)NCC(=O)NC(CC(=O)O)c2ccc(Cl)c(Cl)c2)c1 (racemic) [Example 175, (±)β-[[2-[[[3-[(aminoiminomethyl)amino]phenyl]carbonyl]amino]acetyl]amino]-3,4-dichlorobenzenepropanoic acid, trifluoroacetate salt]	205	2.12
N=C(N)Nc1cccc(C(=O)NCC(=O)NC(CC(=O)O)c2ccc(Br)s2)c1 (stereo not drawn) [Example 366, β-[[2-[[[3-[(aminoiminomethyl)amino]phenyl]carbonyl]amino]acetyl]amino]-5-bromothiophene-2-propanoic acid, trifluoroacetate salt, monohydrate]	91.3	0.44
N=C(N)Nc1cccc(C(=O)NCC(=O)NC(CC(=O)O)c2ccc(Br)c(Br)c2)c1 (racemic) [Example 207, (±)β-[[2-[[[3-[(aminoiminomethyl)amino]phenyl]carbonyl]amino]acetyl]amino]-3,4-dibromobenzenepropanoic acid, trifluoroacetate salt]	148	0.9
CCOC(=O)CC(NC(=O)CNC(=O)c1cccc(NC2=NCCS2)c1)c1cccnc1 (stereo not drawn) [Example 100, ethyl β-[[2-[[[3-[(4,5-dihydrothiazol-2-yl)amino]phenyl]carbonyl]amino]acetyl]amino]pyridine-3-propanoate, trifluoroacetate salt]	> 100000	8560
O=C(O)CC(NC(=O)CNC(=O)c1cccc(NC(=O)NCc2ccccn2)c1)c1cccnc1 (stereo not drawn) [Example 268, β[[2-[[[3-[[[(2-pyridinylmethyl)amino]carbonyl]amino]phenyl]carbonyl]amino]acetyl]amino]pyridine-3-propanoic acid, (bis)trifluoroacetate salt]	7430	0.67
CCOc1cc(OCC)cc(C(CC(=O)O)NC(=O)CNC(=O)c2cccc(NC(=N)N)c2)c1 (stereo not drawn) [Example 249, β-[[2-[[[3-[(aminoiminomethyl)amino]phenyl]carbonyl]amino]acetyl]amino]-3,5-diethoxybenzenepropanoic acid, trifluoroacetate salt]	244	5.31
O=C(O)CC(NC(=O)CNC(=O)c1cccc(NC2=NCCN2)c1)c1cc(C(F)(F)F)cc(C(F)(F)F)c1 (racemic) [Example 179, (±)β-[[2-[[[3-[(4,5-dihydro-1H-imidazol-2-yl)amino]phenyl]carbonyl]amino]acetyl]-amino]-3,5-bis(trifluoromethyl)benzenepropanoic acid, trifluoroacetate salt]	927	2.72
COc1cc(C(CC(=O)O)NC(=O)CNC(=O)c2cccc(NC(=N)N)c2)cc(Br)c1OC (racemic) [Example 262, (±)β-[[2-[[[3-[(aminoiminomethyl)amino]phenyl]carbonyl]amino]acetyl]amino]-3-bromo-4,5-dimethoxybenzenepropanoic acid, trifluoroacetate salt]	172	1.24

Other lines, results leading:

IC50 [1] [nM]	IC50 [2] [nM]	Structure (SMILES)
830	89.3	N=C(N)Nc1cccc(C(=O)NCC(=O)NC(CC(=O)O)c2cc(N)ccc2O)c1 (racemic) [Example 234, (±)5-amino-β-[[2-[[[3-[(aminoiminomethyl)amino]phenyl]carbonyl]amino]acetyl]amino]-2-hydroxybenzenepropanoic acid, bis(trifluoroacetate)salt, monohydrate]
76400	49400	CCOC(=O)NC(=S)Nc1cccc(C(=O)NCC(=O)NC(CC(=O)O)c2cc(Cl)cc(Cl)c2)c1 (stereo not drawn) [Example 240, 3,5-dichloro-β-[[2-[[[3-[[[(ethoxycarbonyl)amino]thioxomethyl]amino]phenyl]carbonyl]amino]acetyl]amino]benzenepropanoic acid]
424	2.99	N=C(N)Nc1cccc(C(=O)NCC(=O)NC(CC(=O)O)c2cc(Cl)ccc2O)c1 (racemic) [Example 231, (±)β-[[2-[[[3-[(aminoiminomethyl)amino]phenyl]carbonyl]amino]acetyl]amino]-5-chloro-2-hydroxybenzenepropanoic acid, trifluoroacetate salt, monohydrate]
5400	1810	CCOC(=O)CCNC(=O)CNC(=O)c1cccc(NC(=N)N)c1 [Example 96, N-[2-[[[3-[(aminoiminomethyl)amino]phenyl]carbonyl]amino]acetyl]-β-alanine, ethyl ester]
927	109	C/N=C(\NCc1ccncc1)Nc1cccc(C(=O)NCC(=O)NC(CC(=O)O)c2ccc(F)cc2)c1 (racemic) [Example 299, (±)4-fluoro-β-[[2-[[[3-[[[(4-pyridinylmethyl)amino](methylimino)methyl]amino]phenyl]carbonyl]amino]acetyl]amino]benzenepropanoic acid, trifluoroacetate salt]
533	2.28	N=C(N)Nc1cccc(C(=O)NCC(=O)NC(CC(=O)O)c2cccc(-c3ccccc3)c2)c1 (stereo not drawn) [Example 242, β-[[2-[[[3-[(aminoiminomethyl)amino]phenyl]carbonyl]amino]acetyl]amino][1,1′-biphenyl]-3-propanoic acid]
> 100000	2840	CCOC(=O)CC(NC(=O)CNC(=O)c1cccc(NC(=O)NCc2ccccc2)c1)c1ccc2c(c1)OCO2 (stereo not drawn) [Example 121, ethyl β-[[2-[[[3-[[[(phenylmethyl)amino]carbonyl]amino]phenyl]carbonyl]amino]acetyl]amino]-1,3-benzodioxole-5-propanoate]
5740	162	C#C[C@H](CC(=O)OCC)NC(=O)CNC(=O)c1cccc(NC(=N)N)c1 [Example 58, ethyl 3S-[[2-[[[3-[(aminoiminomethyl)amino]phenyl)carbonyl]amino]acetyl]amino]-4-pentynoate, trifluoroacetate salt]
4560	17.6	Cc1ccsc1C(CC(=O)O)NC(=O)CNC(=O)c1cccc(NC(=N)N)c1 (stereo not drawn) [Example 244, β-[[2-[[[3-[(aminoiminomethyl)amino]phenyl]carbonyl]amino]acetyl]amino]-3-methylthiophene-2-propanoic acid, trifluoroacetate salt]
